Test results reported in patent US20240287046A1, “COMPOUNDS AND RADIOLIGANDS FOR TARGETING NEUROTENSIN RECEPTOR AND USES THEREOF” (Full-Life Technologies HK Limited, priority 2022, published 2024).

System: ASPC-1 tumor-bearing mice
Experiment: Biodistribution of radionuclide labeled complexes in ASPC-1 tumor-bearing mice
Assay type: in vivo, BALB/c nude mice
Conditions: for ratio of tumor AUC verse normal organ AUC: compared to ^177Lu—C2
Experimental: The BALB/c nude mice (Charles River, Beijing) were utilized to establish the xenografted model for biodistribution study. All animal care and experimental procedure were performed by following the animal protocols approved by the ethics committee of China Institute of Radiation Protection.
Briefly, each mouse was inoculated with approximately 4×10^6 ASPC-1 cells (human pancreatic cancer cell line) or HT-29 cells (human colorectal adenocarcinoma cell line) expressing human NTSR-1 by subcutaneous injection at rear flank. After inoculation, the xenografted tumors were allowed to grow for ˜2-4 weeks till the tumor weight reached to about 0.05 to 0.50 g (0.20 g in average).
Biodistribution studies were performed by administrating the radionuclide labeled test compound at a dose of ˜30-50 μCi (100 μL in 0.9% NaCl, ˜1.11-1.85 MBq, with specific activity 30-250 μCi/nmol) to each animal through tail vein injection.
At different time points after the administration, the mice treated with each compound were euthanized. The tissues and organs of the animals in each group were collected, excised, weighed, and analyzed in a PerkinElmer 2480 WIZARD2γ counter, and the percent injected dose (% ID) and % ID/g of each organ or tissue were calculated.

SMILES: COc1cccc(OC)c1-c1cc(C(=O)NC2(C(=O)O)C3CC4CC(C3)CC2C4)nn1-c1ccc(NCCOCCOCCNC(=O)CN2CCN(CC(=O)[O-])CCN(CC(=O)[O-])CCN(CC(=O)[O-])CC2)cc1C(C)C.[177Lu+3] (centres unmarked) [^177Lu-I-10]
- % ID/g (4 h) Blood (4 h): 0.93 ± 0.29 % ID/g
- % ID/g (24 h) Blood: 0.04 ± 0.00 % ID/g
- % ID/g (72 h) Blood: 0.01 ± 0.00 % ID/g
- % ID/g (4 h) Femur (4 h): 0.23 ± 0.06 % ID/g
- % ID/g (24 h) Femur: 0.04 ± 0.02 % ID/g
- % ID/g (72 h) Femur: 0.02 ± 0 % ID/g
- % ID/g (4 h) Heart (4 h): 0.41 ± 0.13 % ID/g
- % ID/g (24 h) Heart: 0.04 ± 0.02 % ID/g
- % ID/g (72 h) Heart: 0.01 ± 0.01 % ID/g
- % ID/g (4 h) Intestine (4 h): 1.86 ± 0.58 % ID/g
- % ID/g (24 h) Intestine: 0.14 ± 0.01 % ID/g
- % ID/g (72 h) Intestine: 0.04 ± 0.01 % ID/g
- % ID/g (4 h) Kidney (4 h): 3.02 ± 0.39 % ID/g
- % ID/g (24 h) Kidney: 0.31 ± 0.11 % ID/g
- % ID/g (72 h) Kidney: 0.04 ± 0.01 % ID/g
- % ID/g (4 h) Liver (4 h): 0.96 ± 0.4 % ID/g
- % ID/g (24 h) Liver: 0.14 ± 0.01 % ID/g
- % ID/g (72 h) Liver: 0.06 ± 0.02 % ID/g
- % ID/g (4 h) Lung (4 h): 0.74 ± 0.72 % ID/g
- % ID/g (24 h) Lung: 0.4 ± 0.26 % ID/g
- % ID/g (72 h) Lung: 0.05 ± 0.03 % ID/g
- % ID/g (4 h) Muscle (4 h): 0.13 ± 0.12 % ID/g
- % ID/g (24 h) Muscle: 0.01 ± 0.01 % ID/g
- % ID/g (72 h) Muscle: 0.011 ± 0.01 % ID/g
- % ID/g (4 h) Pancreas (4 h): 0.07 ± 0.01 % ID/g
- % ID/g (24 h) Pancreas: 0.04 ± 0.02 % ID/g
- % ID/g (72 h) Pancreas: 0.01 ± 0 % ID/g
- % ID/g (4 h) Spleen (Spleen, 4 h): 0.3 ± 0.14 % ID/g
- % ID/g (24 h) Spleen (Spleen): 0.12 ± 0.05 % ID/g
- % ID/g (72 h) Spleen (Spleen): 0.02 ± 0.01 % ID/g
- % ID/g (4 h) Stomach (4 h): 1.88 ± 0.59 % ID/g
- % ID/g (24 h) Stomach: 0.1 ± 0.07 % ID/g
- % ID/g (72 h) Stomach: 0.04 ± 0.01 % ID/g
- % ID/g (4 h) Tumor (4 h): 17.97 ± 11.04 % ID/g
- % ID/g (24 h) Tumor: 12.27 ± 7.59 % ID/g
- % ID/g (72 h) Tumor: 4.24 ± 2.71 % ID/g
- ratio of tumor AUC verse normal organ AUC: significantly improved

SMILES: COc1cccc(OC)c1-c1cc(C(=O)NC2(C(=O)O)C3CC4CC(C3)CC2C4)nn1-c1ccc(NCCCN(C)CCCNC(=O)CN2CCN(CC(=O)[O-])CCN(CC(=O)[O-])CCN(CC(=O)[O-])CC2)cc1C(C)C.[177Lu+3] (centres unmarked) [^177Lu-I-2]
- tumor AUC over 72 hours compared to ^177Lu—C2: significantly higher tumor AUC
- % ID/g (4 h) Blood (4 h): 9.23 ± 0.36 % ID/g
- % ID/g (24 h) Blood: 0.28 ± 0.03 % ID/g
- % ID/g (72 h) Blood: 0.07 ± 0.01 % ID/g
- % ID/g (4 h) Femur (4 h): 1.4 ± 0.79 % ID/g
- % ID/g (24 h) Femur: 0.39 ± 0.1 % ID/g
- % ID/g (72 h) Femur: 0.111 ± 0.09 % ID/g
- % ID/g (4 h) Heart (4 h): 3.78 ± 0.03 % ID/g
- % ID/g (24 h) Heart: 0.4 ± 0.13 % ID/g
- % ID/g (72 h) Heart: 0.18 ± 0.1 % ID/g
- % ID/g (4 h) Intestine (4 h): 2.00 ± 0.18 % ID/g
- % ID/g (24 h) Intestine: 1.00 ± 0.18 % ID/g
- % ID/g (72 h) Intestine: 0.55 ± 0.11 % ID/g
- % ID/g (4 h) Kidney (4 h): 2.03 ± 0.38 % ID/g
- % ID/g (24 h) Kidney: 2.39 ± 0.77 % ID/g
- % ID/g (72 h) Kidney: 1.69 ± 1.04 % ID/g
- % ID/g (4 h) Liver (4 h): 5.15 ± 1.65 % ID/g
- % ID/g (24 h) Liver: 1.66 ± 0.55 % ID/g
- % ID/g (72 h) Liver: 1.02 ± 0.44 % ID/g
- % ID/g (4 h) Lung (4 h): 1.77 ± 0.37 % ID/g
- % ID/g (24 h) Lung: 0.39 ± 0.11 % ID/g
- % ID/g (72 h) Lung: 0.17 ± 0.02 % ID/g
- % ID/g (4 h) Muscle (4 h): 1.48 ± 1.16 % ID/g
- % ID/g (24 h) Muscle: 0.23 ± 0.14 % ID/g
- % ID/g (72 h) Muscle: 0.05 ± 0.03 % ID/g
- % ID/g (4 h) Pancreas (4 h): 0.54 ± 0.14 % ID/g
- % ID/g (24 h) Pancreas: 0.32 ± 0.15 % ID/g
- % ID/g (72 h) Pancreas: 0.08 ± 0.02 % ID/g
- % ID/g (24 h) Spleen (Spleen): 1.07 ± 0.31 % ID/g
- % ID/g (72 h) Spleen (Spleen): 0.19 ± 0.03 % ID/g
- % ID/g (4 h) Stomach (4 h): 0.86 ± 0.1 % ID/g
- % ID/g (24 h) Stomach: 0.43 ± 0.27 % ID/g
- % ID/g (72 h) Stomach: 0.22 ± 0.1 % ID/g
- % ID/g (4 h) Tumor (4 h): 23.11 ± 18.15 % ID/g
- % ID/g (24 h) Tumor: 25.61 ± 1.69 % ID/g
- % ID/g (72 h) Tumor: 15.44 ± 5.61 % ID/g
- ratio of tumor AUC verse normal organ AUC: significantly improved
